Ends that are not written are not given here.

The record followed here is US20180264124A1, “DRUG COMPLEX” (Shimadzu Corporation, priority 2015, published 2018).

In this assay the test system is HUVEC. As to the kind of experiment: HUVEC growth inhibition test (WST-1 assay). The following applies: 25 ng/mL VEGF, 24 hours. Background: Formazan colour is commonly taken as a measure of viable cells.

Consider “YT1-Cem: non-VEGF-binding helix-loop-helix peptide YT1-Cys (SEQ ID NO: 18) reacted with CemCH2-S-TNB; control complex (CAELAALEAELAALEGGGGGGGKLAALKAKLAALKA; also: Cem conjugated via the Cys (CemCH2-S-TNB reaction))”, for which the cell growth inhibition result was “did not inhibit cell growth”.
